Laboratory results: patent US20220288057A1, “CONJOINT THERAPY FOR TREATING SEIZURE DISORDERS” (XENON PHARMACEUTICALS INC., priority 2021, published 2022)
Values joined by “and” are separate entries in the source; they are usually repeats but may differ in a detail not shown here. Equal entries are not always repeated. Where two headings read alike, the source gives them in different places.

How the values were obtained:
[1] = Terminal plasma and brain concentrations in AC-MES studies (UHPLC-MS/MS); assay type: in vivo, mouse; settings: male, CF-1, mouse, in vivo, po; for Kp at 0.5 h: read-out: B/P Ratio; for Kp at 30 min: read-out: B/P Ratio (brain to plasma ratio); for concentration at 30 min: CF-1 mice
Protocol: Sample Collection and Preparation: Mice were anesthetized by isoflurane inhalation (according to SOP TECH-018) until they reached a surgical plane of anesthesia. Then a syringe (1 mL syringe with a 22 gauge needle) was inserted under the sternum into the heart (according to SOP TECH-031). Approximately 0.5 mL of blood was collected, deposited into a K2EDTA tube, and stored on ice. Animals were then euthanized by cervical dislocation. Brains were removed, placed into a pre-weighed vial, and snap frozen on dry ice. At the end of the sample collection, blood was centrifuged at 4000 rpm for 10 minutes at 4° C., and the plasma pipetted into a labeled tube. All samples were stored in a −80° C. freezer until the time of bioanalysis.
Plasma Samples: Extraction of plasma samples was carried out by protein precipitation using acetonitrile. Diluted plasma samples (50 μL) were mixed with 50 μL of internal standard (IS) solution in 1:1 acetonitrile:water (v:v) followed by addition of 200 μL of acetonitrile. Samples were vortexed for 30 seconds, centrifuged at 13,000 rpm for 20 minutes, decanted into a 96-well plate and further centrifuged at 4000 rpm for 20 minutes. The samples were analyzed by ultra-high performance liquid chromatography electrospray ionization tandem mass spectrometry (UHPLC-ESI-MS/MS) as described in the bioanalysis procedure below.
Brain Samples: Prior to extraction, pre-weighed whole brains were homogenized in 1:1 acetonitrile:water (v:v) (2 mL per mouse brain) using an IKA T18 Ultra-Turrax Homogenizer at the setting of 4 for approximately 1 minute. The homogenate was centrifuged at 13,000 rpm for 20 minutes and 50 μL of the supernatant were treated exactly as described in above for plasma samples.
Bioanalysis Procedures: All samples, including plasma and brain homogenate extracts (including calibration standards and quality control (QC) samples prepared in K2EDTA mouse plasma), were extracted by protein precipitation. To each 50 μL aliquot of sample, 50 μL of IS solution (2500 ng/mL of Lacosamide in water:acetonitrile (1:1)) and 50 μL of 6% (v:v) phosphoric acid in water were added, then 200 μL acetonitrile was added. The samples in 1.7 mL tubes were vortex-mixed then centrifuged for 20 minutes at 13,000 rpm. Fifty microliters of the supernatant was mixed with 150 μL of water:acetonitrile (1:1) in a 96 well plate, which was centrifuged post-mixing for 20 minutes at 4000 rpm. The samples were then ready for UHPLC-MS/MS analysis.
Samples were analyzed for Compound A by a research-grade UHPLC-MS/MS method using the conditions listed below.
Samples were analyzed for Lacosamide by a research-grade UHPLC-MS/MS method using the conditions listed below.
At least three QC samples, one at each concentration, had to show back-calculated values within ±20% of their nominal concentrations for the whole sample batch to be valid.
(§1) The Blinding and Randomization, Clinical Observations, AC-MES Assay, Sample Collection and Preparation, Plasma and Brain Samples Analysis, and Bioanalysis Procedures in Example 4 were identical to those used in Example 2.
Sample concentration determination and Data Processing and Analysis in Example 4 was identical to Example 2.

CF-1 mouse = assay: Clinical observations / behavioral signs in AC-MES studies; assay type: in vivo
Protocol: Any qualitative changes from normal behavior were recorded.
Five oral (PO) doses of Compound A were each tested in the AC-MES model. Thirty minutes after administration of Compound A at 1 mg/kg (n=8), 3 mg/kg (n=8), 5 mg/kg (n=16), 7.5 mg/kg (n=7), and 10 mg/kg (n=17) via oral gavage to male CF-1 mice (body weights 28.2 to 43.8 g), the mice underwent a 60 Hz corneal electrical stimulus (0.2 seconds duration, 40 mA). This stimulus elicited a tonic hindlimb extension in all vehicle-dosed animals. […] An observational neurological assessment (qualitative test) was also conducted at the time of testing as a tolerability screen. Terminal plasma and brain samples were collected from all animals to obtain the levels of Compound A concentration, and to understand the relationship between efficacy and drug concentration.
as §1

Cc1cc(N2CCc3cc(F)ccc3C2)cc(C)c1NC(=O)CC(C)(C)C [Compound A, N-[4-(6-fluoro-3,4-dihydro-1H-isoquinolin-2-yl)-2,6-dimethylphenyl]-3,3-dimethylbutanamide]
Kp at 0.5 h ([1]; 5 mg/kg, Study 2B, Compound A 5 mg/kg PO): 1.51 | concentration at 0.5 h ([1]; 5 mg/kg, Study 2B, Compound A 5 mg/kg PO, read-out: Mean Brain): 710 nM | concentration at 0.5 h ([1]; 5 mg/kg, Study 4A, Compound A 5 mg/kg PO, read-out: mean plasma concentration): 280 nM | Kp at 30 min ([1]; 5 mg/kg, Study 4A, Compound A 5 mg/kg single oral dose): 1.45 | concentration at 0.5 h ([1]; 5 mg/kg, Study 4B, Compound A 5 mg/kg PO, read-out: mean plasma concentration): 470 nM | concentration at 30 min ([1]; 5 mg/kg, Study 4B, Compound A 5 mg/kg single oral dose, read-out: Mean Brain): 710 nM | concentration at 30 min ([1]; 5 mg/kg, Study 4B, Compound A 5 mg/kg single oral dose, read-out: Mean Plasma): 1000 nM | Kp at 30 min ([1]; 5 mg/kg, Study 4B, Compound A 5 mg/kg single oral dose): 1.51 | Kp at 0.5 h ([1]; 7.5 mg/kg, Study 2B, Compound A 7.5 mg/kg PO): 1.64 | concentration at 0.5 h ([1]; 7.5 mg/kg, Study 2B, Compound A 7.5 mg/kg PO, read-out: Mean Brain): 870 nM | concentration at 0.5 h ([1]; 7.5 mg/kg, Study 2B, Compound A 7.5 mg/kg PO, read-out: Mean Plasma): 530 nM | concentration at 30 min ([1]; 7.5 mg/kg, Study 4B, Compound A 7.5 mg/kg single oral dose, read-out: Mean Brain): 870 nM | concentration at 30 min ([1]; 7.5 mg/kg, Study 4B, Compound A 7.5 mg/kg single oral dose, read-out: Mean Plasma): 530 nM | Kp at 30 min ([1]; 7.5 mg/kg, Study 4B, Compound A 7.5 mg/kg single oral dose): 1.64 | Kp at 0.5 h ([1]; 10 mg/kg, Study 2A, Compound A 10 mg/kg PO): 1.36 | concentration at 0.5 h ([1]; 10 mg/kg, Study 2A, Compound A 10 mg/kg PO, read-out: Mean Brain): 500 nM | concentration at 0.5 h ([1]; 10 mg/kg, Study 2A, Compound A 10 mg/kg PO, read-out: Mean Plasma): 366 nM | Kp at 0.5 h ([1]; 10 mg/kg, Study 2B, Compound A 10 mg/kg PO): 1.64 | concentration at 0.5 h ([1]; 10 mg/kg, Study 2B, Compound A 10 mg/kg PO, read-out: Mean Brain): 910 nM | concentration at 0.5 h ([1]; 10 mg/kg, Study 2B, Compound A 10 mg/kg PO, read-out: Mean Plasma): 553 nM | concentration at 0.5 h ([1]; 10 mg/kg, Study 4A, Compound A 10 mg/kg PO, read-out: mean plasma concentration): 370 nM | Kp at 30 min ([1]; 10 mg/kg, Study 4A, Compound A 10 mg/kg single oral dose): 1.36 | concentration at 0.5 h ([1]; 10 mg/kg, Study 4B, Compound A 10 mg/kg PO, read-out: mean plasma concentration): 550 nM | concentration at 30 min ([1]; 10 mg/kg, Study 4B, Compound A 10 mg/kg single oral dose, read-out: Mean Brain): 910 nM | concentration at 30 min ([1]; 10 mg/kg, Study 4B, Compound A 10 mg/kg single oral dose, read-out: Mean Plasma): 550 nM | Kp at 30 min ([1]; 10 mg/kg, Study 4B, Compound A 10 mg/kg single oral dose): 1.64 | Fraction with Behavioral Signs (CF-1 mouse; Study 2A, Compound A 1 mg/kg PO, 0.5 h): 0/8 | Fraction with Behavioral Signs (CF-1 mouse; Study 2A, Compound A 5 mg/kg PO, 0.5 h): 0/8 | Fraction with Behavioral Signs (CF-1 mouse; Study 2A, Compound A 10 mg/kg PO, 0.5 h): 1/8 | plasma concentration of individual mouse showing behavioral signs (tremors, decreased activity, splayed hindlimbs) (CF-1 mouse; Study 2A, Compound A 10 mg/kg group, 10 mg/kg): 0.39 µM | Fraction with Behavioral Signs (CF-1 mouse; Study 2B, Compound A 5 mg/kg PO, 0.5 h): 0/8 | Fraction with Behavioral Signs (CF-1 mouse; Study 2B, Compound A 7.5 mg/kg PO, 0.5 h): 1/7 | plasma concentration of individual mouse showing behavioral signs (tremors, decreased activity, splayed hindlimbs) (CF-1 mouse; Study 2B, Compound A 7.5 mg/kg group, 7.5 mg/kg): 0.75 µM | Fraction with Behavioral Signs (CF-1 mouse; Study 2B, Compound A 10 mg/kg PO, 0.5 h): 2/9 | plasma concentration of individual mouse showing behavioral signs (tremors, decreased activity, splayed hindlimbs) (CF-1 mouse; Study 2B, Compound A 10 mg/kg group, two mice, 10 mg/kg): 0.516 µM and 0.61 µM and 0.52 µM | Fraction with Behavioral Signs (CF-1 mouse; Study 2C, Compound A 3 mg/kg PO, 0.5 h, alone): 0/8 | plasma concentration of individual mouse showing behavioral signs (tremors, decreased activity, splayed hindlimbs) (CF-1 mouse; Study 4A, Compound A 10 mg/kg group): 0.39 µM | Behavioral Signs (fraction) (CF-1 mouse; Study 4A, Compound A 1 mg/kg single oral dose): 0/8 | Behavioral Signs (fraction) (CF-1 mouse; Study 4A, Compound A 5 mg/kg single oral dose): 0/8 | Behavioral Signs (fraction) (CF-1 mouse; Study 4A, Compound A 10 mg/kg single oral dose): 1/8 | plasma concentration of individual mouse showing behavioral signs (tremors, decreased activity, splayed hindlimbs) (CF-1 mouse; Study 4B, Compound A 7.5 mg/kg group): 0.75 µM | plasma concentration of individual mouse showing behavioral signs (tremors, decreased activity, splayed hindlimbs) (CF-1 mouse; Study 4B, Compound A 10 mg/kg group, two mice, 10 mg/kg): 0.61 µM and 0.52 µM | Fraction with Behavioral Signs (CF-1 mouse; Study 4B, Compound A 5 mg/kg single oral dose): 0/8 | Fraction with Behavioral Signs (CF-1 mouse; Study 4B, Compound A 7.5 mg/kg single oral dose): 1/7 | Fraction with Behavioral Signs (CF-1 mouse; Study 4B, Compound A 10 mg/kg single oral dose): 2/9 | Fraction with Behavioral Signs (CF-1 mouse; Study 4C, Compound A 3 mg/kg single oral dose): 0/8 | Fraction with Behavioral Signs (CF-1 mouse; Study 4F, Compound A 2 mg/kg PO alone): 0/8
